The source of these data is patent US20090068125A1, “TREATMENT FOR MUCOSITIS” (HEPTAGEN LTD, priority 2005, published 2009).

The conditions of data set [1]: cited from earlier work.
In data set [2] the test system is human epidermal keratinocytes (HEK). Nature of the data set: Inhibition of human epidermal keratinocyte proliferation (AlamarBlue reduction). The data set is classed as cell-based. Particulars: two typical experiments (FIG. 1), 0.1 to 100 microM adenosine, 2 days incubation, AlamarBlue fluorescence. The text has this: Cryopreserved human epidermal keratinocytes (HEK) isolated from skin were obtained from TCS Cellworks, Botolph Claydon, Buckingham, MK18 2LR, UK. Cells were maintained in EpiLife, a defined basal medium designed for human keratinocytes supplemented with selected hormones and growth factors (TCS Cellworks). […] Proliferating cultures were trypsinised, harvested, treated with a trypsin inhibitor and resuspended in growth medium. The viable cells were counted then replated into 24 or 96 well cell culture plates at a density of approximately 2,500 cells/cm2. Cells were incubated overnight at 37° C. at 5% CO2 to allow recovery, the spent medium aspirated from the wells and replaced with fresh growth medium in the presence or absence of adenosine. Adenosine was obtained from Sigma-Aldrich and made up as a 10 mM stock solution in DMSO. Serial dilutions were made in the growth medium and added to the cells to give final concentrations ranging from 0.1 to 100 microM, and the cells returned to the incubator for 2 days. AlamarBlue 2% v/v was added to the wells and reduction measured fluorometrically using a Molecular Dynamics BioLumin 9600 microtitre plate reader using excitation wavelength at 530 nm and […] wavelength at 590 nm. Control experiments in which compounds were not added were carried out to examine the normal time-scale of proliferation. […]
On the technique in general: Resazurin is reduced to fluorescent resorufin, in cell work by metabolically active cells.

Broadly, the EC50 is the midpoint of the concentration-response curve. Consider `Nc1ncnc2c1ncn2[C@@H]1O[C@H](CO)[C@@H](O)[C@H]1O` [Adenosine], for which the “half-life in the circulation” value in data set [1] was less than 10 s. Besides, the EC50 in data set [2] (Homo sapiens, Keratinocyte, 48 h) amounted to 1700 nM; in data set [2] it was 1100 nM.
